This experiment deals with Tacaribe virus. The experiment is described as follows: Antiviral activity against Tacaribe virus TRVL11573. Type of experiment: functional, organism-based. Particulars: Mammarenavirus tacaribeense.

Molecules are shown by their SMILES. Values after ≈ are worked out from the molar mass of the structure shown.

The EC50 is the concentration giving half of the maximal effect. Lower therefore signals an effect from little substance.

Compound `COc1ccc(NC(=O)CC2SC(N3N=C(c4ccccc4)CC3c3ccc(OC)cc3)=NC2=O)cc1` (stereo unspecified) gave an EC50 of 0.71 µg/mL (≈ 1.38 µM).

The record behind these values is ChEMBL document CHEMBL3108688, “4-Thiazolidinones: the advances continue…” (Eur J Med Chem, 2014).
